Measurements: PubChem BioAssay (NCI)
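Values below derive from 48-hour exposures of cells grown in 96-well plates, with endpoints linearly interpolated between the two concentrations bracketing the appropriate inhibition level. TGI is the concentration that stops growth completely.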

Columns and labels:
Test in all cases: DTP human tumour cell line panel, 48 h
786-0 renal = test system: 786-0 renal
SNB-19 CNS = test system: SNB-19 CNS
A549 NSCLC = test system: A549 NSCLC
RPMI-8226 leukemia = test system: RPMI-8226 leukemia
TK-10 renal = test system: TK-10 renal
OVCAR-5 ovarian = test system: OVCAR-5 ovarian
DU-145 prostate = test system: DU-145 prostate
SF-295 CNS = test system: SF-295 CNS
NCI-H226 lung = test system: NCI-H226 lung
OVCAR-8 ovarian = test system: OVCAR-8 ovarian
HCT-116 colon = test system: HCT-116 colon
MDA-MB-231 breast = test system: MDA-MB-231 breast

SMILES | TGI (786-0 renal) [µM] | TGI (SNB-19 CNS) [µM] | TGI (A549 NSCLC) [µM] | TGI (RPMI-8226 leukemia) [µM] | TGI (TK-10 renal) [µM] | TGI (OVCAR-5 ovarian) [µM] | TGI (DU-145 prostate) [µM] | TGI (SF-295 CNS) [µM] | TGI (NCI-H226 lung) [µM] | TGI (OVCAR-8 ovarian) [µM] | TGI (HCT-116 colon) [µM] | TGI (MDA-MB-231 breast) [µM]
CC(=O)O[C@H]1CC[C@@]2(C)C(=CC[C@@H]3[C@@H]2CC[C@]2(C)C(=N/O)/C(=C\c4ccccc4)C[C@@H]32)C1 | > 55.4 | > 100 | 97.5 | > 100 | 78.8 | 70.2 | > 91 | 67.1 | 44.9 | > 100 | > 100 | 73.2
O=c1[nH]c(=O)n(C2CC(O)C(CO)O2)cc1Oc1ccccc1 (stereo not drawn) | > 100 | > 100 | > 100 | > 100 | > 100 | > 100 | > 100 | > 100 | > 100 | > 100 | > 100 | > 100
COc1cc(/C=C2\CC/C(=C\c3cc(OC)c(O)c(OC)c3)C2=O)cc(OC)c1O | > 100 | > 100 | > 62.1 | 4.01 | > 100 | > 100 | 16.5 | > 100 | > 33.3 | > 26.1 | > 23.2 | 21.4
O=C1NC(=O)c2ccccc2/C1=C/c1ccc2c(c1)OCO2 | > 100 | > 100 | > 100 | 74.3 | > 100 | > 100 | > 100 | 83.1 | > 100 | 95.1 | 22.5 | 47.5
CSC(=S)Nc1cc(C)cc(C)n1 | > 31.6 | > 31.6 | > 31.6 | > 31.6 | > 31.6 | > 31.6 | > 31.6 | > 31.6 | > 31.6 | > 31.6 | > 10 | > 100
Cc1cn(C2CCC(CO)(CF)O2)c(=O)[nH]c1=O (stereo not drawn) | > 100 | > 100 | > 100 | > 100 | > 100 | > 100 | > 100 | > 100 | > 100 | > 100 | > 100 | > 100
O[C@@H]1C=C[C@]23CCN(Cc4cc5c(cc42)OCO5)[C@@H]3C1 | > 100 | > 100 | > 100 | > 100 | > 100 | > 100 | > 100 | > 100 | > 100 | > 100 | > 100 | > 100
CC1CC[C@@]2(OC1)O[C@H]1[C@H](O)[C@H]3[C@@H]4CC[C@H]5C[C@@H](OC6OC(CO)C(OC7OC(CO)C(O)C(OC8OCC(O)C(O)C8O)C7OC7OC(CO)C(O)C(O)C7OC7OC(CO)C(O)C(O)C7O)C(O)C6O)[C@H](O)C[C@]5(C)[C@H]4CC[C@]3(C)[C@H]1[C@@H]2C (stereo partly drawn) | 9.37 | > 10 | > 10 | 5.14 | > 10 | > 10 | > 10 |  | > 10 | > 10 | > 10 | 5.85
COc1ccc(C#Cn2nnc3ccccc32)cc1 | > 100 | > 100 | > 100 | 85.1 | > 100 | > 100 | > 100 | > 100 | > 100 | > 100 | > 100 | > 100
CC1CC/C(=C\c2ccc(F)cc2)C2=C1C(c1ccc(F)cc1)N1C(=O)CSC1=N2 (stereo not drawn) | > 100 | > 100 |  | > 100 | > 100 |  | > 100 | > 100 | > 100 | > 100 | > 100 | > 100
FC(F)(F)c1cc(N(C2c3ccccc3C=Cc3ccccc32)P(Cl)Cl)cc(C(F)(F)F)c1 | 35.5 | 56.8 | 44.1 | 51.2 | > 100 | 49.6 | 40.3 | 41.8 | 38.7 | 35.7 | 40.3 | 35
Cc1cc(S(=O)(=O)Nc2nc3ncccc3[nH]2)c(S)cc1Cl | > 100 | > 100 | > 100 | > 100 | > 100 | > 100 | > 100 | > 100 | > 100 | > 100 | > 100 | > 100
COC(=O)[C@H](Cc1c[nH]c2ccccc12)NP(=O)(OCCC#N)OCC1OC(n2cc(C)c(=O)[nH]c2=O)CC1N=[N+]=[N-] (stereo partly drawn) | > 100 | > 100 | > 100 | > 100 | > 100 | > 100 | > 100 | > 100 | > 100 | > 100 | > 100 | > 100
CN(Cc1cnc2nc(N)nc(N)c2n1)c1ccc(C(=O)NC23CC4CC(CC(C4)C2)C3)cc1 | 57.1 | 18.6 |  | 70.8 | 30.8 | 24.7 | 38.1 | 21.1 | 27.3 | 19.9 | > 100 | 39.5
COC(C/C(=C/CO[Si](C(C)C)(C(C)C)C(C)C)C(=O)N(COCC[Si](C)(C)C)c1ccccc1I)OC | > 100 | > 100 | > 100 | > 100 | > 100 | 87.2 | > 100 | 17.4 | > 100 | > 100 | 46.2 | > 100
NNC(=O)Nc1nc2ccc(NN)cc2[nH]1 | > 100 | > 100 | > 100 | 26.7 | 82.6 | > 100 | > 100 | > 100 | 89.8 | > 100 | > 100 | > 100
O=C(c1ccccc1)c1ccc2nc(-c3c(Cl)c(Cl)c(Cl)c(Cl)c3-c3nnc(-c4ccccc4)o3)[nH]c2c1 | > 100 | > 100 | > 100 | > 100 | > 100 | > 100 | > 100 | 73.9 | 97.7 | > 100 | > 100 | > 100
Cn1cnc(N)c(N=O)c1=O | > 10 | > 10 | > 10 | > 10 | > 10 | > 10 | > 10 | > 10 | > 10 | > 10 | > 10 | > 10

SMILES | TGI (786-0 renal) [µM] | TGI (SNB-19 CNS) [µM] | TGI (A549 NSCLC) [µM] | TGI (RPMI-8226 leukemia) [µM] | TGI (TK-10 renal) [µM] | TGI (OVCAR-5 ovarian) [µM] | TGI (DU-145 prostate) [µM] | TGI (SF-295 CNS) [µM] | TGI (NCI-H226 lung) [µM] | TGI (OVCAR-8 ovarian) [µM] | TGI (HCT-116 colon) [µM] | TGI (MDA-MB-231 breast) [µM]
O=C(COc1ccc(OCC(=O)N2C(=O)CC(=O)N(c3ccc(Cl)cc3)C2=S)cc1)N1C(=O)CC(=O)N(c2ccc(Cl)cc2)C1=S | 80.1 | > 100 | > 100 | > 100 | > 100 | > 100 | > 100 | > 100 | 85.7 |  | 25.2 | > 100
CCOC(=O)c1ccc(Nc2nc3ccccc3nc2-c2cccs2)cc1 | > 100 | > 100 | > 100 | > 100 | 58.5 | > 100 | > 100 | > 100 | > 100 | > 100 | > 100 | > 100
CCN1C/C(=C\c2ccc(Cl)cc2)c2nc(N)c(C#N)c(-c3ccc(Cl)cc3)c2C1 | > 100 | > 100 | > 100 | > 100 | > 100 | > 100 | > 100 | > 100 | > 100 | > 100 | > 100 | > 100
O=C(O)CSc1ccccc1C(=O)O | > 100 | > 100 | > 100 | > 100 | 53.5 | > 100 | > 100 | > 100 | > 100 | > 100 | > 100 | > 100
COc1cccc(N=N/C(=N/NC(=O)c2ccc(C)cc2)c2ccc(N(CCC#N)CCC#N)cc2OC)c1 | > 100 | > 100 | > 100 | > 100 | > 100 | 39.1 | > 100 | > 100 | > 100 | > 100 | > 100 | > 100
Cc1c(C(=O)c2ccc(N)c3ccccc23)c2ccccc2n1CCN1CCOCC1 | 80.6 | > 100 | 99.1 | > 61.1 | > 82.2 | 98.2 | > 95.2 | 48.5 | > 100 | > 94.5 | 48.6 | > 100
C1=NCCNCCNCCN=Cc2ccc(cc2)OCc2cccc(n2)COc2ccc1cc2 | > 100 | > 100 | > 100 | > 100 |  | > 100 | > 100 | > 100 | > 100 | > 100 | > 100 | > 100
Cc1cccc2c(N)c3cccc(C(=O)NCC[N+](C)(C)Cc4ccc([N+](=O)[O-])s4)c3nc12 | 27.8 | 60.2 | 17.5 | 34.1 | > 100 | > 61.2 | 46.8 | > 100 | 21.9 | 42.9 | > 100 | 21.3
COC(=O)[C@@H]1CS(=O)(=O)C(C(C)C)N1C(C)=O (stereo partly drawn) | > 100 | > 100 | > 100 | > 100 | > 100 | > 100 | > 100 | > 100 | > 100 | > 100 | > 100 | > 100
C[C@]12CC[C@H]3[C@@H](CCC4=CC(=O)C=C[C@@]43OC(=O)C(F)(F)F)[C@@H]1CCC2=O | > 83.5 | > 100 | > 100 | > 100 | > 100 | > 100 | > 100 | > 100 | > 100 | > 100 | > 56 | > 100
Cc1ccc(S(=O)(=O)N2C[C@@H]3CC[C@]4(CO[Si](C)(C)C(C)(C)C)N[C@@H](c5ccccc5)[C@H]2[C@H]34)cc1 | > 100 | > 100 | > 100 | 46.8 | > 100 | > 100 | > 100 | > 100 | 57.1 | > 100 | > 100 | > 100
CN1/C(=C/C=C/C=C/C=C2C(=O)c3ccccc3C2=O)C(C)(C)c2ccccc21 | > 100 | > 100 | > 100 | > 100 | > 100 | > 100 | > 100 | > 100 | > 100 | > 100 | > 100 | > 100
C#C[C@]1(O)CC[C@H]2[C@@H]3CCC4=C/C(=N/NC(=O)c5cccc6c(=O)c7ccccc7[nH]c56)CCC4[C@H]3CC[C@@]21C (stereo partly drawn) | > 100 | > 100 | > 100 | > 100 | > 100 | > 100 | > 100 | > 100 | > 100 | > 100 | > 100 | > 100
Cc1nc2cc(F)c(F)cc2[nH]c1=O | > 100 | > 100 | > 100 | > 100 | > 100 | > 100 | > 100 | > 100 | > 100 | > 100 | > 100 | > 100
NCCCN(CCCCN(CCCN)C(=O)OCc1ccccc1)C(=O)OCc1ccccc1 | > 100 | > 100 | > 100 | > 100 | > 100 | > 100 | > 100 | > 100 | > 100 | > 100 | > 100 | 93.7
O=C1c2cc(Cc3ccccc3)c(=O)c(Cc3ccccc3)cc2C(=O)c2cc(Cc3ccccc3)c(=O)c(Cc3ccccc3)cc21 | > 100 | > 100 | > 100 | > 100 | > 100 | > 100 | > 100 | > 100 | > 100 | > 100 | > 100 | > 100
O=c1[nH]nc(-c2ccccc2)n1/N=C/c1ccc([N+](=O)[O-])o1 | > 31.7 | > 47.2 | 21.9 | 12.8 | > 100 | 31.5 | 17.5 | > 55.1 | 37.5 |  | 5.55 | 19.5
